Columns and labels:
[1] = biological target: Serine/threonine-protein kinase ULK3 (Homo sapiens) (UniProt Q6PHR2)
[2] = biological target: Vascular endothelial growth factor receptor 2 (Homo sapiens) (UniProt P35968)
[3] = biological target: Myosin light chain kinase family member 4 (Homo sapiens) (UniProt Q86YV6)
[4] = biological target: Tyrosine-protein kinase Blk (Homo sapiens) (UniProt P51451)
[5] = biological target: Cyclin-dependent kinase 16 (Homo sapiens) (UniProt Q00536)
[6] = biological target: Cyclin-dependent kinase 17 (Homo sapiens) (UniProt Q00537)
[7] = biological target: Hepatocyte growth factor receptor (Homo sapiens) (UniProt P08581)
[8] = biological target: Cyclin-dependent kinase-like 5 (Homo sapiens) (UniProt O76039)
[9] = biological target: Membrane-associated tyrosine- and threonine-specific cdc2-inhibitory kinase (Homo sapiens) (UniProt Q99640)
Sequence of Membrane-associated tyrosine- and threonine-specific cdc2-inhibitory kinase (Homo sapiens) (Q99640 whole entry): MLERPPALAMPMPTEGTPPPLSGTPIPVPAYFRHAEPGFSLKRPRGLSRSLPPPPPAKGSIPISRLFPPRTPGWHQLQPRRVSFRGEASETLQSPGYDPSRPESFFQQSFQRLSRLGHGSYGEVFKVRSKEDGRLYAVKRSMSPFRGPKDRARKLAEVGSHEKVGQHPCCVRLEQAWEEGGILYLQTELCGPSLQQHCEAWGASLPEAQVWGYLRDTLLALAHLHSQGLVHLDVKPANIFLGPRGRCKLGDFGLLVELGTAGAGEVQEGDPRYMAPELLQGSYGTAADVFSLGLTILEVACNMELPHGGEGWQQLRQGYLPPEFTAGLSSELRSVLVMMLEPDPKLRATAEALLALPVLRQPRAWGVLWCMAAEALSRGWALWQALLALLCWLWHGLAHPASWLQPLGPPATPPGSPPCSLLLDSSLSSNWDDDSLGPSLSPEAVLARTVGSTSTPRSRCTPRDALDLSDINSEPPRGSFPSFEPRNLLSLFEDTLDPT

[10] = biological target: T1, cGMP-dependent protein kinase 2 (Homo sapiens) (UniProt Q13237)
T1 sequence (whole entry): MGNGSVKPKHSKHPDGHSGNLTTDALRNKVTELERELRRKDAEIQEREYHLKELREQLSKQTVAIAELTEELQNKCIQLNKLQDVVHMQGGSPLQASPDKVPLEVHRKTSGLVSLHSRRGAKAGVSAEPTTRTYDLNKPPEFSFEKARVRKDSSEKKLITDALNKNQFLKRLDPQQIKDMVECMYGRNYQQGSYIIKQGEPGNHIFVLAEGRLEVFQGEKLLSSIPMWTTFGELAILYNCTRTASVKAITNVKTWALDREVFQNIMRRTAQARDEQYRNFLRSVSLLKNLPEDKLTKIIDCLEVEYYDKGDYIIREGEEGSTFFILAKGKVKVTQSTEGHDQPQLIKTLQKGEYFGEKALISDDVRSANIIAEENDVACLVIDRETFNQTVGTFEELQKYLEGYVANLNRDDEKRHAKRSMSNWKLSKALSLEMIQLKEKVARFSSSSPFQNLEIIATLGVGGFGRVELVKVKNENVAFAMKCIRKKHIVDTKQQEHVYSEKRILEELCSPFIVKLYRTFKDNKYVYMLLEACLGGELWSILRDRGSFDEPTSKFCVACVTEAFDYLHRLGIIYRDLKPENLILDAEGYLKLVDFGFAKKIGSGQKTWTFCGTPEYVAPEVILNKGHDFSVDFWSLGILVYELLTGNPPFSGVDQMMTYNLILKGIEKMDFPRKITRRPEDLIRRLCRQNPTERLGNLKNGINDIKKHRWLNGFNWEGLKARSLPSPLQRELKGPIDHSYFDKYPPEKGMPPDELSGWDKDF

[11] = biological target: Receptor-interacting serine/threonine-protein kinase 1 (Homo sapiens) (UniProt Q13546)
Sequence of Receptor-interacting serine/threonine-protein kinase 1 (Homo sapiens) (Q13546 whole entry): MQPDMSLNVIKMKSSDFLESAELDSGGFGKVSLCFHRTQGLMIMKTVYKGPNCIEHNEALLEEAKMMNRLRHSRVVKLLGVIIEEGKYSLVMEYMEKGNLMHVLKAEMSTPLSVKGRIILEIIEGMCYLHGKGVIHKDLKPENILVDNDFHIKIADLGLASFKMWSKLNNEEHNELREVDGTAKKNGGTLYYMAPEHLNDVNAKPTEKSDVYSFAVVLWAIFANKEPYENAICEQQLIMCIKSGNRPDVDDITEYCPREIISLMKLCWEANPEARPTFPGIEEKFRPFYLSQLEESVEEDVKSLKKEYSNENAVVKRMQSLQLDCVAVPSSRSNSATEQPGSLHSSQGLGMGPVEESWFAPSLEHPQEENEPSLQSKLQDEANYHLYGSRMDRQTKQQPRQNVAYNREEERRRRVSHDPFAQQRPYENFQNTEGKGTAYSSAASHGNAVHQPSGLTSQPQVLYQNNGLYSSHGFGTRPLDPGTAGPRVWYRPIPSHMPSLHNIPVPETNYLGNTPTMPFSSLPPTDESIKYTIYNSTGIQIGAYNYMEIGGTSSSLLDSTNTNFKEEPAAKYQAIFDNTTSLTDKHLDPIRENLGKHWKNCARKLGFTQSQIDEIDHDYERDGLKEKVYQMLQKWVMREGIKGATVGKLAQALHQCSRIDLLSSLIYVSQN

[12] = biological target: Dual specificity mitogen-activated protein kinase kinase 5 (Homo sapiens) (UniProt Q13163)
Sequence of Dual specificity mitogen-activated protein kinase kinase 5 (Homo sapiens) (Q13163 whole entry): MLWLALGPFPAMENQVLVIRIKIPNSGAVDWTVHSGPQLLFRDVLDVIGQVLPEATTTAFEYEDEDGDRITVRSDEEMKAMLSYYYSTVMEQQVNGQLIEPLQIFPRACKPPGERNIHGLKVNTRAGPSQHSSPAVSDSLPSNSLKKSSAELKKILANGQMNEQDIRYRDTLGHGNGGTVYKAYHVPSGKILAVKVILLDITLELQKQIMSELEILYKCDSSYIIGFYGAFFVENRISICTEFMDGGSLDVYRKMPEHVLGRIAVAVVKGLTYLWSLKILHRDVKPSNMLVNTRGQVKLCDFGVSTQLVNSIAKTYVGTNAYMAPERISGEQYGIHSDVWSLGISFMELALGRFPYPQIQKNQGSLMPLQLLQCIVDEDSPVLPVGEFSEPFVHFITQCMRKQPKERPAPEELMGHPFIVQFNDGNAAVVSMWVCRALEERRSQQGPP

[13] = biological target: Mitogen-activated protein kinase kinase kinase 19 (Homo sapiens) (UniProt Q56UN5)
Sequence of Mitogen-activated protein kinase kinase kinase 19 (Homo sapiens) (Q56UN5 whole entry): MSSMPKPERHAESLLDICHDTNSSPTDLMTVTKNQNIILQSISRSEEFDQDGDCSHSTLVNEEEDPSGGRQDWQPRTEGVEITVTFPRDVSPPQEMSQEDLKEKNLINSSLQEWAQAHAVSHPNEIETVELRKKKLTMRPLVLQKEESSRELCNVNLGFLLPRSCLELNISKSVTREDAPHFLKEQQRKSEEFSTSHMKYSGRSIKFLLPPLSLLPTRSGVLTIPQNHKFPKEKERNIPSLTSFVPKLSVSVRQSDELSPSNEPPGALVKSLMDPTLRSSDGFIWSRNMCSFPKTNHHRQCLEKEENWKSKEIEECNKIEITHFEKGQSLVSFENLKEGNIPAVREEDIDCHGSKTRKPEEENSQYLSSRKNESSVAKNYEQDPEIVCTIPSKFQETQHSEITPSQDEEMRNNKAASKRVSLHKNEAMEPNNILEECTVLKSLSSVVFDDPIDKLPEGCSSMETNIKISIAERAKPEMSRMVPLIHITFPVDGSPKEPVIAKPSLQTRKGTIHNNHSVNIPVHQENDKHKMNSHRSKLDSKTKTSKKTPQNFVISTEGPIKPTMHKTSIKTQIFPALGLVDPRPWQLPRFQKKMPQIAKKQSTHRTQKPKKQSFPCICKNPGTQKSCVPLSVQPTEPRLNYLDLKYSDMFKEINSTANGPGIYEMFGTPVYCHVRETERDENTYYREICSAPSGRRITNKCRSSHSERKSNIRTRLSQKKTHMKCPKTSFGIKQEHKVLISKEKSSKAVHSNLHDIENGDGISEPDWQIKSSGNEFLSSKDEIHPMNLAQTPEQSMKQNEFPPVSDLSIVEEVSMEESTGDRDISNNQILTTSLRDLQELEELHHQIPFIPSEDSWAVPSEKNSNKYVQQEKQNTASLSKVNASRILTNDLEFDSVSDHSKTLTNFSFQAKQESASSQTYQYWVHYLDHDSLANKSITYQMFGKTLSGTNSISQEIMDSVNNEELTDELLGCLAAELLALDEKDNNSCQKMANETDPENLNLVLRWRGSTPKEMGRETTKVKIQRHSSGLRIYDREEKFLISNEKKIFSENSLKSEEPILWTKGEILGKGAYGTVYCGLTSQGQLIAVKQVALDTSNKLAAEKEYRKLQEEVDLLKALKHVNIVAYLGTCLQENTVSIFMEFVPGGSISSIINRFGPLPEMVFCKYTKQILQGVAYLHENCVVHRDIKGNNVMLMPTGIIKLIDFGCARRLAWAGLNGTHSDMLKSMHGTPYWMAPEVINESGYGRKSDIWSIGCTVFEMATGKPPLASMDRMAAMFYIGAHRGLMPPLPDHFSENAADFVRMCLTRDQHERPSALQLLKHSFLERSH

[14] = test system: T2, Receptor-type tyrosine-protein kinase FLT3 (Homo sapiens), P36888 [D835Y]
T2 sequence (whole entry): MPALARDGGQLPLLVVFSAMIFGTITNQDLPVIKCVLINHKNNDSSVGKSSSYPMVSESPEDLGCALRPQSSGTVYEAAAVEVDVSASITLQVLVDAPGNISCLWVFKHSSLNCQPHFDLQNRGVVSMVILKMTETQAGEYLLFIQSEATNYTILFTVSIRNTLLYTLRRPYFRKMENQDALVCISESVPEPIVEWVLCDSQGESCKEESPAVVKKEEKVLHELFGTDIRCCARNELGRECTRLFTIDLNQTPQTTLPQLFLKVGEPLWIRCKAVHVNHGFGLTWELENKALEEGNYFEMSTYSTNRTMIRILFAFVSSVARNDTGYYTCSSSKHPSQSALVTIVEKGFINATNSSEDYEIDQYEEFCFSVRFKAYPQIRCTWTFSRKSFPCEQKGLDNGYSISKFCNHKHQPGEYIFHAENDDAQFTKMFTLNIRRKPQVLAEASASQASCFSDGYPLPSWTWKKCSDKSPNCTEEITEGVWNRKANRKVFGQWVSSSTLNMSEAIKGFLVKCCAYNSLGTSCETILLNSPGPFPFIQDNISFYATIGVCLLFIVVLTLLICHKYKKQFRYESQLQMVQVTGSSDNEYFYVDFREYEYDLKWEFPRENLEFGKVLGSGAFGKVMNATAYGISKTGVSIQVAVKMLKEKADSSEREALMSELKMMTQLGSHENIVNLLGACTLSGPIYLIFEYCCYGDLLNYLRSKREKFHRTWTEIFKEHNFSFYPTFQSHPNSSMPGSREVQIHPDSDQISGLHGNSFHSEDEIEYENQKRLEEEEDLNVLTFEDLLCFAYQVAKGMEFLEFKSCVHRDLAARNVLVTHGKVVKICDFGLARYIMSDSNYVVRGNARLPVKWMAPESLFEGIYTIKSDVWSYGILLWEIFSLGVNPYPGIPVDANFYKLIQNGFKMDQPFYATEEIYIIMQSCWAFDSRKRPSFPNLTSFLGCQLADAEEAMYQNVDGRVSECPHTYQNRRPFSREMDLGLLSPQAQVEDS

[15] = biological target: T3, Serine/threonine-protein kinase Sgk3 (Homo sapiens) (UniProt Q96BR1)
T3 sequence (whole entry): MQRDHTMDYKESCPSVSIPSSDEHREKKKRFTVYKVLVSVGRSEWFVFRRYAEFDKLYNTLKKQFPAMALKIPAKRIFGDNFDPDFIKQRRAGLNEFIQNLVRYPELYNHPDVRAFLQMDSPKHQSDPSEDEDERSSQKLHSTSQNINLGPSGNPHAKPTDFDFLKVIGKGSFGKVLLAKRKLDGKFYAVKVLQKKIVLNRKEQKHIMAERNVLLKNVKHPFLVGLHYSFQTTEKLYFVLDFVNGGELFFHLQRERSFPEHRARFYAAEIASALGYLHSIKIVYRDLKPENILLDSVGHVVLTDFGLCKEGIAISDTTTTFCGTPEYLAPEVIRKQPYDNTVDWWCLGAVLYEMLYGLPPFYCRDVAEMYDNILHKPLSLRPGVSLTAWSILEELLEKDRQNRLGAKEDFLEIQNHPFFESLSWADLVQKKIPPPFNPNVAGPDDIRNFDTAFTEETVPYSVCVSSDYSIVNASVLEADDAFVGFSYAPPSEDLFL

[16] = Compound concentration 1000.0 nM
[17] = Compound concentration 100.0 nM

Measured: residual activity

Sequence of Myosin light chain kinase family member 4 (Homo sapiens) (Q86YV6 whole entry): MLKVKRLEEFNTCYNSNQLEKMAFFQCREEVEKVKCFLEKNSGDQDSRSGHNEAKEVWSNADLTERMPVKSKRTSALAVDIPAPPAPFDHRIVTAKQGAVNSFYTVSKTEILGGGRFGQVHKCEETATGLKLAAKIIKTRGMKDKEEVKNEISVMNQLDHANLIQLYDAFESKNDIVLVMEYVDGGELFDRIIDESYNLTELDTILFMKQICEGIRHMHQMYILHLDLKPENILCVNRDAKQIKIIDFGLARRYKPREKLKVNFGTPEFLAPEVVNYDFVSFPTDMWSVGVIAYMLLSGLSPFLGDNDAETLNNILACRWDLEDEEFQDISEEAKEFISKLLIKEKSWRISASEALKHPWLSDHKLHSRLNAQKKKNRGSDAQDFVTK
Sequence of Vascular endothelial growth factor receptor 2 (Homo sapiens) (P35968 whole entry): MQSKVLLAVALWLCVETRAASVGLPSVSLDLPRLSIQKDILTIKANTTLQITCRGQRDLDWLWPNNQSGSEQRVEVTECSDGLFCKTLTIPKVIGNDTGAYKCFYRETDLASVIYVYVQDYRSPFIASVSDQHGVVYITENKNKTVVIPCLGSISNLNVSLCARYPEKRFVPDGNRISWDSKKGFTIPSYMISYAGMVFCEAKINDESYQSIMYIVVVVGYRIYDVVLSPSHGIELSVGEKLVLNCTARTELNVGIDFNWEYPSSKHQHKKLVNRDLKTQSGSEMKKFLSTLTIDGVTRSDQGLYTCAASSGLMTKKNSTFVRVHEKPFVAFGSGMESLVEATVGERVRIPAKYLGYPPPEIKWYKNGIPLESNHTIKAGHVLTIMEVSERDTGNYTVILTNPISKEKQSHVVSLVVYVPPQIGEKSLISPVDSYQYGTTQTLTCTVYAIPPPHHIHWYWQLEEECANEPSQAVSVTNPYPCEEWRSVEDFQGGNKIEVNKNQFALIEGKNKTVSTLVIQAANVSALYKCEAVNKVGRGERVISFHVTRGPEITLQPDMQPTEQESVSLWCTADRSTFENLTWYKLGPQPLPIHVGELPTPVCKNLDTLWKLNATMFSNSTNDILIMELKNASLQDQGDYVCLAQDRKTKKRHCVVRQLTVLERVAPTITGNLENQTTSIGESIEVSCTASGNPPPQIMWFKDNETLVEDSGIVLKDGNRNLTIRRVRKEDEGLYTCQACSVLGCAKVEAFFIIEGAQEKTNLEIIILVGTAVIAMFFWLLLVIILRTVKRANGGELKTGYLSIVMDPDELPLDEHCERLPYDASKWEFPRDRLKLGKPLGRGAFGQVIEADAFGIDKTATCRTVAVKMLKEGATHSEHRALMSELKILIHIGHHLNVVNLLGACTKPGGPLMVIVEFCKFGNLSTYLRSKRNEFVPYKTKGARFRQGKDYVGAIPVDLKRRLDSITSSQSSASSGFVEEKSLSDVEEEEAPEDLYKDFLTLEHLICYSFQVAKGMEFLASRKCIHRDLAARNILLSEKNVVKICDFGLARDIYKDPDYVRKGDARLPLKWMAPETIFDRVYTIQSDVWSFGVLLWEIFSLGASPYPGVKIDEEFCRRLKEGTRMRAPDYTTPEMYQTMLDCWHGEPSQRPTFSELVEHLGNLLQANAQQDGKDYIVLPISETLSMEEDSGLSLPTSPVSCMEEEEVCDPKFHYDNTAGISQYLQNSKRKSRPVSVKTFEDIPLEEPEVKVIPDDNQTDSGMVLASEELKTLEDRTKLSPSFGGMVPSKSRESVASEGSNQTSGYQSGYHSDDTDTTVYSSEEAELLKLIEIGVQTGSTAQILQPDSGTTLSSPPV

C[C@@H]1CN(c2cc(-c3nn(C)c4ccc(OC5(C)CC5)cc34)ncn2)C[C@H](C)O1 [MLi-2-NC]
inactive: [1]; [16] 67% | [2]; [16] 75% | [3]; [16] 100% | [4]; [16] 95% | [5]; [16] 87% | [6]; [16] 88% | [7]; [16] 100% | [8]; [16] 64% | [9]; [16] 100% | [10]; [16] 85% | [11]; [16] 98% | [12]; [16] 93% | [13]; [16] 68% | [14]; [16] 100% | [15]; [16] 67%

C[C@@H]1CN(c2cc(-c3n[nH]c4ccc(OC5(C)CC5)cc34)ncn2)C[C@H](C)O1 [MLi-2]
inactive: [1]; [17] 78% | [2]; [17] 82% | [3]; [17] 100% | [4]; [17] 83% | [5]; [17] 85% | [6]; [17] 89% | [7]; [17] 100% | [8]; [17] 72% | [9]; [17] 96% | [10]; [17] 79% | [11]; [17] 100% | [12]; [17] 90% | [13]; [17] 84% | [14]; [17] 100% | [15]; [17] 84%

From ChEMBL document CHEMBL4507291 (2021)
